Here are results for 27 compounds from patent US20230053437A1, “LIPID COMPOUNDS AND LIPID NANOPARTICLE COMPOSITIONS” (Suzhou Abogen Biosciences Co., Ltd., priority 2020, published 2023).

What all share (format): physicochemical
Data set [1] in a line: Lipid nanoparticle size by dynamic light scattering (Malvern Zetasizer Nano ZS). Particulars: LNP: cationic lipid/DSPC/cholesterol/PEG-lipid 50:10:38.5:1.5 with hEPO mRNA. As to the method: (§1) Briefly, a cationic lipid provided herein, DSPC, cholesterol, and PEG-lipid were solubilized in ethanol at a molar ratio of 50:10:38.5:1.5, and mRNA were diluted in 10 to 50 mM citrate buffer, pH=4. The LNPs were prepared at a total lipid to mRNA weight ratio of approximately 10:1 to 30:1 by mixing the ethanolic lipid solution with the aqueous mRNA solution at a volume ratio of 1:3 using a microfluidic apparatus, total flow rate ranging from 9-30 mL/min. Ethanol were thereby removed and replaced by DPBS using dialysis. Finally, the lipid nanoparticles were filtered through a […] sterile filter.
(§2) Lipid nanoparticle size were determined by dynamic light scattering using a Malvern Zetasizer Nano ZS (Malvern UK) using a 173° backscatter detection mode. The encapsulation efficiency of lipid nanoparticles were determined using a Quant-it Ribogreen RNA quantification assay kit (Thermo Fisher Scientific, UK) according to the manufacturer's instructions.

A short description of data set [2]: Encapsulation efficiency of lipid nanoparticles, Quant-it Ribogreen RNA quantification assay. To be noted: LNP with hEPO mRNA. As for the experimental part: as §1, §2
Data set [3] in a line: Apparent pKa of LNP formulations, TNS fluorescence assay. Particulars: LNP cationic lipid/DSPC/cholesterol/DMG-PEG 50/10/38.5/1.5 mol %, pH 3 to 9. As to the method: As reported in literature, the apparent pKa of LNP formulations correlates with the delivery efficiency of LNPs for nucleic acids in vivo. The apparent pKa of each formulation was determined using an assay based on fluorescence of 2-(p-toluidino)-6-napthalene sulfonic acid (TNS). LNP formulations comprising of cationic lipid/DSPC/cholesterol/DMG-PEG (50/10/38.5/1.5 mol %) in PBS were prepared as described above. TNS was prepared as a 300 uM stock solution in distilled water. LNP formulations were diluted to 0.1 mg/ml total lipid in 3 mL of buffered solutions containing 50 mM sodium citrate, 50 mM sodium phosphate, 50 mM sodium borate, and 30 mM sodium chloride where the pH ranged from 3 to 9. An aliquot of the TNS solution was added to give a final concentration of 0.1 mg/ml and following vortex mixing fluorescence intensity was measured at room temperature in a Molecular Devices Spectramax iD3 spectrometer using excitation and mission wavelengths of 325 nm and 435 nm. A sigmoidal best fit analysis was applied to the fluorescence data and the pKa value was measured as the pH giving rise to half-maximal fluorescent intensity.

Turning to `CCCCCCCCCCCC(=O)OCC1(COC(=O)CCCCCCCCCCC)CCN(C(=O)CCN(C)CCCn2ccc(N)nc2=O)CC1` [Compound 14], in data set [1], the polydispersity stood at 0.092 and the “size (nm)” value was found to be 67.29 nm. In data set [2], the “Encapsulation Efficiency” value worked out at 92.5%. For the same compound, the “Apparant Pka” value in data set [3] is listed as 8.22.
Regarding `CCCCCCCCCCCC(=O)OCC1(COC(=O)CCCCCCCCCCC)CCN(C(=O)CCN(CCCCCC)CCCCCC)CC1` [Compound 31], in data set [1], the polydispersity came to 0.136 and the “size (nm)” value came out at 67.72 nm. In addition, the “Encapsulation Efficiency” value in data set [2] worked out at 92.7%. In addition, in data set [3], the “Apparant Pka” value is recorded as 6.39.
`CCCCCCCCC(CCCCCC)COC(=O)CCCCCC(=O)OCC1(COC(=O)CCCCCC(=O)OCC(CCCCCC)CCCCCCCC)CCN(C(=O)CCN(CC)CCO)CC1` (stereo not shown) [Compound 57]: in data set [1], the polydispersity came to 0.276 and the “size (nm)” value came out at 74.16 nm. For the same compound, the “Encapsulation Efficiency” value in data set [2] is recorded as 100.4%. The “Apparant Pka” value in data set [3] was 8.80.
For the compound `CCCCCCCCCCCC(=O)OCC1(COC(=O)CCCCCCCCCCC)CCN(C(=O)CCN(CCO)C(C)C)CC1` [Compound 23], in data set [1], the polydispersity was 0.078 and the “size (nm)” value turned out to be 77.29 nm. Moreover, in data set [2], the “Encapsulation Efficiency” value is reported as 93.0%. The “Apparant Pka” value in data set [3] is listed as 7.68.
As for `CCCCCCCCCCCC(=O)OCC1(COC(=O)CCCCCCCCCCC)CCN(C(=O)CCN2CCCCCC2)CC1` [Compound 7], in data set [1], the polydispersity was 0.101 and the “size (nm)” value is 68 nm. Further, the “Encapsulation Efficiency” value in data set [2] is reported as 98.2%. Moreover, the “Apparant Pka” value in data set [3] was 9.02.
On to `CCCCCCCCCCCC(=O)OCC1(COC(=O)CCCCCCCCCCC)CCN(C(C)CO)CC1` (stereo not shown) [Compound 17], for which, in data set [1], the polydispersity amounted to 0.159 and the “size (nm)” value amounted to 54.04 nm. The “Encapsulation Efficiency” value in data set [2] stood at 96.6%. Moreover, in data set [3], the “Apparant Pka” value is given as 7.68.
Take `CCCCCCCCCCCC(=O)OCC1(COC(=O)CCCCCCCCCCC)CCN(C(=O)CCN(C)CCCNc2c(N(C)C)c(=O)c2=O)CC1` [Compound 12]: in data set [1], the polydispersity is recorded as 0.23 and the “size (nm)” value stood at 98.67 nm. Also, the “Encapsulation Efficiency” value in data set [2] was 95.8%. In data set [3], the “Apparant Pka” value is on record as 7.45.
The like results for `CCCCCCCCCCCCCC(=O)OCC1(COC(=O)CCCCCCCCCCCCC)CCN(C(=O)CCN(CCCCCC)CCCCCC)CC1` [Compound 33] were, in that order, 0.106, 87.01 nm, 89.9% and 6.06.
Turning to `CCCCCCCCCCCC(=O)OCC1(COC(=O)CCCCCCCCCCC)CCN(C(=O)CCCN(CCC)CCO)CC1` [Compound 36], in data set [1], the polydispersity was found to be 0.095 and the “size (nm)” value came to 67.83 nm. In data set [2], the “Encapsulation Efficiency” value is listed as 93.2%. The “Apparant Pka” value in data set [3] is reported as 7.84.
On the same counts, the results for `CCCCCCCCCCCC(=O)OCC1(COC(=O)CCCCCCCCCCC)CCN(CCCCCCO)CC1` [Compound 21] are 0.198, 127.8 nm, 73.2% and 6.71.
Regarding `CCCCCCCCCCCC(=O)OCC1(COC(=O)CCCCCCCCCCC)CCN(C(=O)CCCN2CCCCCCC2)CC1` [Compound 42], in data set [1], the polydispersity is recorded as 0.298 and the “size (nm)” value came out at 78.03 nm. Also, in data set [2], the “Encapsulation Efficiency” value turned out to be 96.1%. Besides, the “Apparant Pka” value in data set [3] is recorded as 7.45.
As for `CCCCCCCCCOC(=O)CCC1(CCC(=O)OCCCCCCCCC)CCN(C(=O)CCN(C)C)CC1` [Compound 63], in data set [1], the polydispersity was 0.113 and the “size (nm)” value was 82.74 nm. The “Encapsulation Efficiency” value in data set [2] was found to be 97.4%. Further, in data set [3], the “Apparant Pka” value is recorded as 7.859.
As for `CCCCCCCCC(CCCCCC)COC(=O)CCCCCC(=O)OCC1(COC(=O)CCCCCC(=O)OCC(CCCCCC)CCCCCCCC)CCN(C(=O)CCCN2CCCCC2)CC1` (stereo not shown) [Compound 59], in data set [1], the polydispersity was determined as 0.378 and the “size (nm)” value was determined as 109.8 nm. Besides, the “Encapsulation Efficiency” value in data set [2] is given as 102.1%. In addition, the “Apparant Pka” value in data set [3] was 11.77.
For the compound `CCCCCCCCCCCC(=O)OCC1(COC(=O)CCCCCCCCCCC)CCN(C(=O)CCN(CC)CC)CC1` [Compound 27], in data set [1], the polydispersity was 0.11 and the “size (nm)” value amounted to 71.72 nm. Besides, the “Encapsulation Efficiency” value in data set [2] is on record as 93.6%. For the same compound, in data set [3], the “Apparant Pka” value is on record as 8.27.
On the same counts, the results for `CCCCCCCCCCCC(=O)OCC1(COC(=O)CCCCCCCCCCC)CCN(C(=O)CCCN(C)C)CC1` [Compound 38] are 0.104, 73.39 nm, 93.5% and 7.85.
Regarding `CCCCCCCCCCCC(=O)OCC1(COC(=O)CCCCCCCCCCC)CCN(C(=O)CCN(CCC)CCO)CC1` [Compound 22], in data set [1], the polydispersity amounted to 0.252 and the “size (nm)” value was found to be 56.79 nm. Besides, the “Encapsulation Efficiency” value in data set [2] was 93.9%. In data set [3], the “Apparant Pka” value is 7.76.
Take `CCCCCCCCC(CCCCCC)COC(=O)CCCCCC(=O)OCC1(COC(=O)CCCCCC(=O)OCC(CCCCCC)CCCCCCCC)CCN(C(=O)CCN(C)CCO)CC1` (stereo not shown) [Compound 56]: in data set [1], the polydispersity worked out at 0.284 and the “size (nm)” value was determined as 83.06 nm. In addition, the “Encapsulation Efficiency” value in data set [2] is given as 101.1%. In data set [3], the “Apparant Pka” value is listed as 11.73.
For `CCCCCCCCCCCC(=O)OCC1(COC(=O)CCCCCCCCCCC)CCN(C(=O)CCN(CC)CCO)CC1` [Compound 3], in data set [1], the polydispersity was 0.165 and the “size (nm)” value was 64.67 nm. In data set [2], the “Encapsulation Efficiency” value turned out to be 96.4%. Also, the “Apparant Pka” value in data set [3] was 7.58.
Regarding `CCCCCCCCC(CCCCCC)COC(=O)CCCCCC(=O)OCC1(COC(=O)CCCCCC(=O)OCC(CCCCCC)CCCCCCCC)CCN(C(=O)CCCN(C)C)CC1` (stereo not shown) [Compound 52], in data set [1], the polydispersity came to 0.47 and the “size (nm)” value was found to be 107.3 nm. Also, in data set [2], the “Encapsulation Efficiency” value came to 100.4%. Further, the “Apparant Pka” value in data set [3] came to 6.20.
As for `CCCCCCCCCCCC(=O)OCC1(COC(=O)CCCCCCCCCCC)CCN(C(=O)CCCN2CCCCC2)CC1` [Compound 40], in data set [1], the polydispersity was 0.066 and the “size (nm)” value stood at 84.7 nm. Besides, in data set [2], the “Encapsulation Efficiency” value amounted to 92.4%. Also, in data set [3], the “Apparant Pka” value worked out at 9.27.
On the same counts, the results for `CCCCCCCCCCCC(=O)OCC1(COC(=O)CCCCCCCCCCC)CCN(CCO)CC1` [Compound 1] are 0.096, 58.53 nm, 98.8% and 7.30.
`CCCCCCCCCCCC(=O)OCC1(COC(=O)CCCCCCCCCCC)CCN(C(=O)CCN2CCCCCCC2)CC1` [Compound 8]: in data set [1], the polydispersity is on record as 0.227 and the “size (nm)” value amounted to 74.14 nm. Further, in data set [2], the “Encapsulation Efficiency” value stood at 91.6%. The “Apparant Pka” value in data set [3] is given as 7.58.
The like results for `CCCCCCCCCCCC(=O)OCC1(COC(=O)CCCCCCCCCCC)CCN(C(=O)CCN2CCOCC2)CC1` [Compound 10] were, in that order, 0.135, 67.82 nm, 82.5% and 6.81.
On to `CCCCCCCCC(CCCCCC)COC(=O)CCCCCC(=O)OCC1(COC(=O)CCCCCC(=O)OCC(CCCCCC)CCCCCCCC)CCN(C(=O)CCN(C)C)CC1` (stereo not shown) [Compound 51], for which, in data set [1], the polydispersity turned out to be 0.424 and the “size (nm)” value is listed as 103.3 nm. In addition, the “Encapsulation Efficiency” value in data set [2] is given as 101.7%. In addition, the “Apparant Pka” value in data set [3] is 7.46.
As to `CCCCCCCCCCCCCCCC(=O)OCC1(COC(=O)CCCCCCCCCCCCCCC)CCN(C(=O)CCN(CCCCCC)CCCCCC)CC1` [Compound 34], in data set [1], the polydispersity is 0.127 and the “size (nm)” value was 110.4 nm. For the same compound, the “Encapsulation Efficiency” value in data set [2] is recorded as 74.0%. For the same compound, the “Apparant Pka” value in data set [3] stood at 5.90.
As for `CCCCCCCCCCCC(=O)OCC1(COC(=O)CCCCCCCCCCC)CCN(C(=O)CCN(CCC)CCC)CC1` [Compound 28], in data set [1], the polydispersity was 0.142 and the “size (nm)” value came out at 116.2 nm. Moreover, the “Encapsulation Efficiency” value in data set [2] worked out at 79.2%.
`CCCCCCCCCCCC(=O)OCC1(COC(=O)CCCCCCCCCCC)CCN(C(=O)CCN(C)C)CC1` [Compound 9]: in data set [1], the polydispersity came to 0.08 and the “size (nm)” value amounted to 70.22 nm. Moreover, the “Encapsulation Efficiency” value in data set [2] came to 95.5%.
